In patent US20110015119A1, “NOVEL SEMI-SYNTHETIC GLYCOPEPTIDES AS ANTIBACTERIAL AGENTS” (LEAD THERAPEUTICS, INC., priority 2009, published 2011):
In brackets after ≈: the same amount, converted by molar mass. Where two headings read alike, the source gives them in different places.

How the values were obtained:
Format in all cases: cell-based
[1] = tested on: Streptococcus pyogenes 712; experiment: MIC by broth microdilution, SPY 712
How it was run: (§1)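 Broth microdilution in Mueller-Hinton broth per NCCLS/CLSI procedure, with automated serial dilution and liquid transfer. Strains are clinical isolates sensitive or resistant to natural glycopeptides.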

Enterococcus faecium 800 = experiment: MIC by broth microdilution, EFcm 800
How it was run: as §1

[2] = tested on: Enterococcus faecium 752 (VRE, Van A); experiment: MIC by broth microdilution, EFcm 752; conditions: class symbols
How it was run: as §1

[3] = tested on: Staphylococcus epidermidis 835; experiment: MIC by broth microdilution, SE 835
How it was run: as §1

[4] = tested on: Staphylococcus epidermidis 831 (MRSE); experiment: MIC by broth microdilution, SE 831; conditions: read-out: MIC SE 831
How it was run: as §1

[5] = tested on: Staphylococcus aureus 757 (MRSA); experiment: MIC by broth microdilution, SA 757; conditions: read-out: MIC SA 757
How it was run: as §1

[6] = tested on: Staphylococcus aureus 2012 (VISA); experiment: MIC by broth microdilution, SA 2012; conditions: class symbols
How it was run: as §1

[7] = tested on: Streptococcus pneumoniae 1195 (ATCC 49619); experiment: MIC by broth microdilution, SPNE 1195
How it was run: as §1

[8] = tested on: Enterococcus faecalis 848 (VRE, Van A); experiment: MIC by broth microdilution, EFc 848; conditions: class symbols
How it was run: as §1

[9] = tested on: Enterococcus faecalis 101 (ATCC 29212); experiment: MIC by broth microdilution, EFc 101; conditions: class symbols
How it was run: as §1

[10] = tested on: Staphylococcus aureus 100 (ATCC 29213); experiment: MIC by broth microdilution, SA 100
How it was run: as §1

[11] = Streptococcus pyogenes, 712, read-out: MIC S PYO 712
[12] = Enterococcus faecium, 800, read-out: MIC E FCM 800
[13] = Enterococcus faecium, VRE, read-out: MIC E FCM 752, Enterococcus faecium 752 (VRE, Van A)
[14] = Staphylococcus epidermidis, 835, read-out: MIC SE 835
[15] = Staphylococcus epidermidis, MRSE
[16] = Staphylococcus aureus, VISA, read-out: MIC SA 2012, Staphylococcus aureus 2012 (VISA)
[17] = Streptococcus pneumoniae, ATCC49619, read-out: MIC S PNE 1195
[18] = Enterococcus faecalis, VRE, read-out: MIC E FC 848, Enterococcus faecalis 848 (VRE, Van A)
[19] = Enterococcus faecalis, ATCC29212, read-out: MIC E FC 101, Enterococcus faecalis 101 (ATCC 29212)
[20] = Staphylococcus aureus, ATCC29213, read-out: MIC SA 100
[21] = Streptococcus pyogenes 712, class symbols, read-out: MIC S PYO 712
[22] = Enterococcus faecium 800, class symbols, read-out: MIC E FCM 800
[23] = Enterococcus faecium 752 (VRE, Van A), read-out: MIC E FCM 752
[24] = Staphylococcus epidermidis 835, class symbols, read-out: MIC SE 835
[25] = Staphylococcus epidermidis 831 (MRSE), class symbols
[26] = Staphylococcus aureus 757 (MRSA), class symbols
[27] = Staphylococcus aureus 2012 (VISA), read-out: MIC SA 2012
[28] = ATCC49619, Streptococcus pneumoniae 1195 (ATCC 49619), class symbols, read-out: MIC S PNE 1195
[29] = Enterococcus faecalis 848 (VRE, Van A), read-out: MIC E FC 848
[30] = ATCC29212, Enterococcus faecalis 101 (ATCC 29212), read-out: MIC E FC 101
[31] = ATCC29213, Staphylococcus aureus 100 (ATCC 29213), class symbols, read-out: MIC SA 100

SMILES | MIC [1, 11] | MIC (Enterococcus faecium 800; [12]) | MIC [2, 13] | MIC [3, 14] | MIC [4, 15] | MIC ([5]; Staphylococcus aureus, MRSA) | MIC [6, 16] | MIC [7, 17] | MIC [8, 18] | MIC [1, 21] | MIC (Enterococcus faecium 800; [22]) | MIC [2, 23] | MIC [3, 24] | MIC [4, 25] | MIC [5, 26] | MIC [6, 27] | MIC [7, 28] | MIC [8, 29] | MIC [9, 30] | MIC [10, 31] | also measured
CCNCCOc1ccc(CCNC(=O)Oc2cc(O)c3c(c2)[C@@H](C(=O)NC2C4CC5CC(C4)CC2C5)NC(=O)[C@H]2NC(=O)[C@H](NC(=O)[C@@H]4NC(=O)[C@H](CC(N)=O)NC(=O)[C@H](NC(=O)[C@@H](CC(C)C)NC)[C@H](O)c5ccc(c(Cl)c5)Oc5cc4cc(c5O[C@@H]4O[C@H](CO)[C@@H](O)[C@H](O)[C@H]4O[C@H]4C[C@](C)(N)[C@H](O)[C@H](C)O4)Oc4ccc(cc4Cl)[C@H]2O)c2ccc(O)c-3c2)cc1 (stereo partly shown) [Compound 337] | 0.01 to 0.5 µg/mL (≈ 0.0055 to 0.275 µM) | 0.01 to 0.5 µg/mL (≈ 0.0055 to 0.275 µM) | 4 to 8 µg/mL (≈ 2.2 to 4.4 µM) | 0.01 to 0.5 µg/mL (≈ 0.0055 to 0.275 µM) | 0.01 to 0.5 µg/mL (≈ 0.0055 to 0.275 µM) | 0.01 to 0.5 µg/mL (≈ 0.0055 to 0.275 µM) | 1 to 2 µg/mL (≈ 0.55 to 1.1 µM) | 0.01 to 0.5 µg/mL (≈ 0.0055 to 0.275 µM) | 8 to 16 µg/mL (≈ 4.4 to 8.81 µM) | – | – | – | – | – | – | – | – | – | – | – | MIC [9, 19]: 0.01 to 0.5 µg/mL (≈ 0.0055 to 0.275 µM); MIC [10, 20]: 0.01 to 0.5 µg/mL (≈ 0.0055 to 0.275 µM)
CCCCCCc1ccc(S(=O)(=O)NCCCCCCNCc2c(O)cc3c(c2O)-c2cc(ccc2O)[C@H]2NC(=O)[C@@H]4NC(=O)[C@H](CC(N)=O)NC(=O)[C@H](NC(=O)[C@@H](CC(C)C)NC)[C@H](O)c5ccc(c(Cl)c5)Oc5cc4cc(c5O[C@@H]4O[C@H](CO)[C@@H](O)[C@H](O)[C@H]4O[C@H]4C[C@]5(C)NC(=O)O[C@@H]5[C@H](C)O4)Oc4ccc(cc4Cl)[C@@H](O)[C@H](NC2=O)C(=O)N[C@@H]3C(=O)O)cc1 (atropisomer, axis not shown) [Compound 305] | – | – | – | – | – | – | – | – | – | 0.01 to 0.5 µg/mL (≈ 0.00547 to 0.274 µM) | 0.01 to 0.5 µg/mL (≈ 0.00547 to 0.274 µM) | 1 to 2 µg/mL (≈ 0.547 to 1.09 µM) | 0.01 to 0.5 µg/mL (≈ 0.00547 to 0.274 µM) | 0.01 to 0.5 µg/mL (≈ 0.00547 to 0.274 µM) | 0.01 to 0.5 µg/mL (≈ 0.00547 to 0.274 µM) | 0.01 to 0.5 µg/mL (≈ 0.00547 to 0.274 µM) | 0.01 to 0.5 µg/mL (≈ 0.00547 to 0.274 µM) | 8 to 16 µg/mL (≈ 4.38 to 8.75 µM) | 0.01 to 0.5 µg/mL (≈ 0.00547 to 0.274 µM) | 0.01 to 0.5 µg/mL (≈ 0.00547 to 0.274 µM) | –
CCCCCCc1ccc(NC(=O)NCCCCCCNC(=O)Oc2cc(O)c3c(c2)[C@@H](C(=O)O)NC(=O)[C@H]2NC(=O)[C@H](NC(=O)[C@@H]4NC(=O)[C@H](CC(N)=O)NC(=O)[C@H](NC(=O)[C@@H](CC(C)C)NC)[C@H](O)c5ccc(c(Cl)c5)Oc5cc4cc(c5O[C@@H]4O[C@H](CO)[C@@H](O)[C@H](O)[C@H]4O[C@H]4C[C@](C)(N)[C@H](O)[C@H](C)O4)Oc4ccc(cc4Cl)[C@H]2O)c2ccc(O)c-3c2)cc1 (atropisomer, axis not shown) [Compound 354] | 0.01 to 0.5 µg/mL (≈ 0.00557 to 0.279 µM) | 0.01 to 0.5 µg/mL (≈ 0.00557 to 0.279 µM) | 0.01 to 0.5 µg/mL (≈ 0.00557 to 0.279 µM) | 0.01 to 0.5 µg/mL (≈ 0.00557 to 0.279 µM) | 0.01 to 0.5 µg/mL (≈ 0.00557 to 0.279 µM) | 0.01 to 0.5 µg/mL (≈ 0.00557 to 0.279 µM) | 0.5 to 1 µg/mL (≈ 0.279 to 0.557 µM) | 0.01 to 0.5 µg/mL (≈ 0.00557 to 0.279 µM) | 2 to 4 µg/mL (≈ 1.11 to 2.23 µM) | – | – | – | – | – | – | – | – | – | – | – | MIC [9, 19]: 0.01 to 0.5 µg/mL (≈ 0.00557 to 0.279 µM); MIC [10, 20]: 0.01 to 0.5 µg/mL (≈ 0.00557 to 0.279 µM)
CCCCCCc1ccc(S(=O)(=O)NCCCCCCNCc2c(O)cc3c(c2O)-c2cc(ccc2O)[C@H]2NC(=O)[C@@H]4NC(=O)[C@H](CC(N)=O)NC(=O)[C@H](NC(=O)[C@@H](CC(C)C)NC)[C@H](O)c5ccc(c(Cl)c5)Oc5cc4cc(c5O[C@@H]4O[C@H](CO)[C@@H](O)[C@H](O)[C@H]4O[C@H]4C[C@](C)(NC(=O)[C@H](N)C(C)C)[C@H](O)[C@H](C)O4)Oc4ccc(cc4Cl)[C@@H](O)[C@H](NC2=O)C(=O)N[C@@H]3C(=O)O)cc1 (atropisomer, axis not shown) [Compound 343] | – | – | – | – | – | – | – | – | – | 0.01 to 0.5 µg/mL (≈ 0.00526 to 0.263 µM) | 0.01 to 0.5 µg/mL (≈ 0.00526 to 0.263 µM) | 1 to 2 µg/mL (≈ 0.526 to 1.05 µM) | 0.01 to 0.5 µg/mL (≈ 0.00526 to 0.263 µM) | 0.01 to 0.5 µg/mL (≈ 0.00526 to 0.263 µM) | 0.01 to 0.5 µg/mL (≈ 0.00526 to 0.263 µM) | 0.01 to 0.5 µg/mL (≈ 0.00526 to 0.263 µM) | 0.01 to 0.5 µg/mL (≈ 0.00526 to 0.263 µM) | 8 to 16 µg/mL (≈ 4.21 to 8.42 µM) | 0.01 to 0.5 µg/mL (≈ 0.00526 to 0.263 µM) | 0.01 to 0.5 µg/mL (≈ 0.00526 to 0.263 µM) | –
CCCCCCc1ccc(S(=O)(=O)NCCOCCNCc2c(O)cc3c(c2O)-c2cc(ccc2O)[C@H]2NC(=O)[C@@H]4NC(=O)[C@H](CC(N)=O)NC(=O)[C@H](NC(=O)[C@@H](CC(C)C)NC)[C@H](O)c5ccc(c(Cl)c5)Oc5cc4cc(c5O[C@@H]4O[C@H](CO)[C@@H](O)[C@H](O)[C@H]4O[C@H]4C[C@]5(C)NC(=O)O[C@@H]5[C@H](C)O4)Oc4ccc(cc4Cl)[C@@H](O)[C@H](NC2=O)C(=O)N[C@@H]3C(=O)O)cc1 (atropisomer, axis not shown) [Compound 308] | – | – | – | – | – | – | – | – | – | 0.01 to 0.5 µg/mL (≈ 0.00551 to 0.275 µM) | 0.01 to 0.5 µg/mL (≈ 0.00551 to 0.275 µM) | 4 to 8 µg/mL (≈ 2.2 to 4.41 µM) | 0.01 to 0.5 µg/mL (≈ 0.00551 to 0.275 µM) | 0.01 to 0.5 µg/mL (≈ 0.00551 to 0.275 µM) | 0.01 to 0.5 µg/mL (≈ 0.00551 to 0.275 µM) | 0.5 to 1 µg/mL (≈ 0.275 to 0.551 µM) | 0.01 to 0.5 µg/mL (≈ 0.00551 to 0.275 µM) | > 16 µg/mL | 0.01 to 0.5 µg/mL (≈ 0.00551 to 0.275 µM) | 0.01 to 0.5 µg/mL (≈ 0.00551 to 0.275 µM) | –
